Experimental data published in patent US20080234233A1, “MEDICAMENT FOR TREATMENT OF NEURODEGENERATIVE DISEASES” (INSTITUTE OF MEDICINAL MOLECULAR DESIGN INC., priority 2002, published 2008).

Legend:
[1] = test system: NF-κ B activation; assay: Inhibitory activity of NF-κB activation, luciferase reporter assay under TNF-α stimulation in HepG2; type: cell-based, human; conditions: HepG2, TNF-α 40 ng/ml, 4 hours; for inhibition at 1 µg/mL / inhibition at 10 µg/mL: Homo sapiens, read-out: Inhibitory rate against NF-κB activation (%)
Outline: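 HepG2 cells transiently transfected with luciferase reporter carrying five tandem NF-κB binding sites, then stimulated with TNF-α (40 ng/ml) ± compound for 4 hours. Luminescent luciferase activity measured; inhibition expressed relative to activity without compound.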

[2] = test system: AP-1 activation; assay: Inhibition against AP-1 activation by TNF α stimulation, luciferase reporter assay in HeLa; type: cell-based, human; conditions: TNF-α 40 ng/ml, 4 hours; for inhibition at 1 µg/mL / inhibition at 10 µg/mL: Homo sapiens, read-out: Inhibitory rate against AP-1 activation(%)
Experimental: Measurement of Inhibition Against AP-1 Activation by TNF α Stimulation
Using a transfection reagent(Effectene; QIAGEN), the human uterine cancer cell strain HeLa was transfected with a plasmid(pAP-1-Luc Reporter Plasmid: […]) integrated with an oligonucleotide having seven tandem copies of AP-1 binding sequences(TGACTAA) on an upstream region of firefly luciferase gene(Luc) according to the QIAGEN's protocol, and the cells were incubated for 6 to 24 hours. After addition of TNF-α (40 ng/ml) in the presence or absence of a test compound, the cells were incubated for 4 hours, and intracellular luciferase activity was measured by using PicaGene LT(TOYO INK MFG Co., Ltd.) and a chemical luminescence measurement apparatus([…]luor Plus; TECAN). The inhibitory ratio was measured as a ratio relative to the value of the luciferase activity in the absence of the test compound.

SMILES | Inhibitory rate against NF-κB activation (%) ([1]; Drug concentration at 1 μg/mL) | Inhibitory rate against NF-κB activation (%) ([1]; Drug concentration at 10 μg/mL) | inhibition at 1 µg/mL ([1]; Drug concentration at 1 μg/mL) | also measured
O=C(Nc1cc(C(F)(F)F)cc(C(F)(F)F)c1)c1cc(Br)ccc1O [compound 6] | 94.9% | 98.6% |  | Inhibitory rate against AP-1 activation(%) ([2]; Drug concentration at 1 μg/mL): 48.4%; Inhibitory rate against AP-1 activation(%) ([2]; Drug concentration at 10 μg/mL): 91.2%
O=C(Nc1cc(C(F)(F)F)cc(C(F)(F)F)c1)c1cc(I)ccc1O [compound 7, N-[3,5-bis(trifluoromethyl)phenyl]-2-hydroxy-5-iodobenzamide] |  |  | 86.6% | inhibition at 10 µg/mL ([1]; Drug concentration at 10 μg/mL): 85.4%; inhibition at 1 µg/mL ([2]; Drug concentration at 1 μg/mL): 25.4%; inhibition at 10 µg/mL ([2]; Drug concentration at 10 μg/mL): 82.4%
O=C(Nc1cc(C(F)(F)F)cc(C(F)(F)F)c1)c1cc(/C=C/c2ccccc2)ccc1O [compound 19] | 95.5% | 96.9% |  | Inhibitory rate against AP-1 activation(%) ([2]; Drug concentration at 10 μg/mL): 33.9%
O=C(Nc1cc(C(F)(F)F)cc(C(F)(F)F)c1)c1cc(C#Cc2ccccc2)ccc1O [compound 22, N-[3,5-bis(trifluoromethyl)phenyl]-2-hydroxy-5-(phenylethynyl)-benzamide] |  |  | 83.9% | inhibition at 10 µg/mL ([1]; Drug concentration at 10 μg/mL): 97.1%; inhibition at 10 µg/mL ([2]; Drug concentration at 10 μg/mL): 44.1%
O=C(Nc1cc(C(F)(F)F)cc(C(F)(F)F)c1)c1cc(-c2ccccc2)ccc1O [compound 23] | 91.8% | 96.8% |  | Inhibitory rate against AP-1 activation(%) ([2]; Drug concentration at 1 μg/mL): 18.1%; Inhibitory rate against AP-1 activation(%) ([2]; Drug concentration at 10 μg/mL): 60.9%
O=C(Nc1nc(-c2ccccc2)c(C(=O)O)s1)c1cc(Br)ccc1O [compound 217, 2-(5-bromo-2-hydroxybenzoyl)amino-4-phenylthiazole-5-carboxylic acid] |  |  |  | inhibition at 1 µg/mL ([2]; Drug concentration at 1 μg/mL): 21.7%; inhibition at 10 µg/mL ([2]; Drug concentration at 10 μg/mL): 55.3%
O=C(Nc1cc(-c2ccccc2)[nH]n1)c1cc(Br)ccc1O [compound 233] | 26.6% | 84.7% |  | 
CCc1nc(NC(=O)c2cc(Br)ccc2O)oc1CC [compound 234, 5-Bromo-N-(4,5-diethyloxazol-2-yl)-2-hydroxybenzamide] |  |  | 29.1% | inhibition at 10 µg/mL ([1]; Drug concentration at 10 μg/mL): 63.1%
O=C(Nc1nc(-c2ccccc2)c(-c2ccccc2)o1)c1cc(Br)ccc1O [compound 235] |  | 81.8% |  | 
O=C(Nc1nc(-c2ccco2)c(-c2ccco2)o1)c1cc(Br)ccc1O [compound 236, 5-Bromo-N-[4,5-bis(furan-2-yl)oxazol-2-yl]-2-hydroxybenzamide] |  |  | 21.4% | inhibition at 10 µg/mL ([1]; Drug concentration at 10 μg/mL): 56%
O=C(Nc1nnc(C(F)(F)F)s1)c1ccccc1O [compound 237, 2-Hydroxy-N-(5-trifluoromethyl-1,3,4-thiadiazol-2-yl)benzamide] |  |  |  | inhibition at 10 µg/mL ([1]; Drug concentration at 10 μg/mL): 81.9%
O=C(Nc1nnc(C(F)(F)F)s1)c1cc(Br)ccc1O [compound 238] | 26.1% | 90.3% |  | 
O=C(Nc1ccc(Cl)nc1)c1cc(Cl)ccc1O [compound 240] | 14.3% | 92.3% |  | 
COc1cc(Cl)nc(NC(=O)c2cc(Cl)ccc2O)n1 [compound 241] | 25.5% | 78.9% |  | 
O=C(Nc1cnc2ccccc2c1)c1cc(Cl)ccc1O [compound 242] |  | 85.7% |  | 
O=C(Nc1cccc(Br)n1)c1cc(Cl)ccc1O [compound 243] | 84.2% | 95.1% |  | 
O=C(Nc1cc(C(F)(F)F)cc(C(F)(F)F)c1)c1cc(S(=O)(=O)Nc2cc(C(F)(F)F)cc(C(F)(F)F)c2)ccc1O [compound 247] |  | >99.9% |  | 
O=C(Nc1cc(C(F)(F)F)cc(C(F)(F)F)c1)c1cccc(-c2ccccc2)c1O [compound 249, N-[3,5-bis(trifluoromethyl)phenyl]-2-hydroxy-3-phenylbenzamide] |  |  | 86.6% | inhibition at 10 µg/mL ([1]; Drug concentration at 10 μg/mL): 90.7%

SMILES | Inhibitory rate against NF-κB activation (%) ([1]; Drug concentration at 1 μg/mL) | Inhibitory rate against NF-κB activation (%) ([1]; Drug concentration at 10 μg/mL) | inhibition at 1 µg/mL ([1]; Drug concentration at 1 μg/mL) | also measured
O=C(Nc1cc(C(F)(F)F)cc(C(F)(F)F)c1)c1ccc(F)cc1O [compound 250] | 94.2% | 95.4% |  | 
N#Cc1ccc(Oc2ccc(C(F)(F)F)cc2NC(=O)c2cc(Cl)ccc2O)cc1 [compound 252] | 93.9% | 96.3% |  | 
COc1ccc(Oc2ccc(C(F)(F)F)cc2NC(=O)c2cc(Cl)ccc2O)cc1 [compound 253] | 96.3% | 99.5% |  | 
O=C(Nc1nc(-c2ccc(Cl)cc2Cl)cs1)c1cc(Cl)ccc1O [compound 255, 5-Chloro-2-hydroxy-N-[4-(2,4-dichlorophenyl)thiazol-2-yl]benzamide] |  |  | > 99.9% | 
CC(C)c1cccc(C(=O)Nc2cc(C(F)(F)F)cc(C(F)(F)F)c2)c1O [compound 256, N-[3,5-bis(trifluoromethyl)phenyl]-2-hydroxy-3-isopropylbenzamide] |  |  | 92.1% | 
CC(C)c1cc(Br)cc(C(=O)Nc2cc(C(F)(F)F)cc(C(F)(F)F)c2)c1O [compound 257] | >99.9% |  |  | 
Cc1cc(Br)cc(C(=O)Nc2cc(C(F)(F)F)cc(C(F)(F)F)c2)c1O [compound 258] | >99.9% |  |  | 
O=C(Nc1cc(C(F)(F)F)cc(C(F)(F)F)c1)c1cc(Br)cc(-c2ccccc2)c1O [compound 259] | >99.9% |  |  | 
O=C(Nc1nc(-c2ccc(Cl)c(Cl)c2)cs1)c1cc(Cl)ccc1O [compound 260, 5-Chloro-2-hydroxy-N-[4-(3,4-dichlorophenyl)thiazol-2-yl]benzamide] |  |  | > 99.9% | 
O=C(Nc1nc(-c2ccc(C(F)(F)F)cc2)cs1)c1cc(Cl)ccc1O [compound 261, 5-Chloro-2-hydroxy-N-{4-[4-(trifluoromethyl)phenyl]thiazol-2-yl}benzamide] |  |  | > 99.9% | 
O=C(Nc1cc(C(F)(F)F)cc(C(F)(F)F)c1)c1ccc(-c2ccccc2)cc1O [compound 262, N-[3,5-Bis(trifluoromethyl)phenyl]-2-hydroxy-4-phenylbenzamide] |  |  | > 99.9% | 
O=C(Nc1nc(-c2cc(F)ccc2F)cs1)c1cc(Cl)ccc1O [compound 263, 5-Chloro-2-hydroxy-N-[4-(2,5-difluorophenyl)thiazol-2-yl]benzamide] |  |  | > 99.9% | 
COc1ccc(-c2csc(NC(=O)c3cc(Cl)ccc3O)n2)cc1 [compound 264, 5-Chloro-2-hydroxy-N-[4-(4-methoxyphenyl)thiazol-2-yl]benzamide] |  |  | > 99.9% | 
O=C(Nc1nc(-c2cccc(C(F)(F)F)c2)cs1)c1cc(Cl)ccc1O [compound 265, 5-Chloro-2-hydroxy-N-{4-[3-(trifluoromethyl)phenyl]thiazol-2-yl}benzamide] |  |  | > 99.9% | 
O=C(Nc1nc(-c2c(F)c(F)c(F)c(F)c2F)cs1)c1cc(Cl)ccc1O [compound 266, 5-Chloro-2-hydroxy-N-[4-(2,3,4,5,6-pentafluorophenyl)thiazol-2-yl]benzamide] |  |  | > 99.9% | 
Cc1ccc(C(=O)c2ccccc2)c(NC(=O)c2cc(Cl)ccc2O)c1 [compound 267] | 28.6% |  |  | 
O=C(Nc1cc(C(F)(F)F)ccc1C(F)(F)F)c1cc(Br)ccc1O [compound 268] | 87.1% | 98.4% |  | 
